Patent US8524750B2, “(Pyrazol-3-yl)-1,3,4-thiadiazol-2-amine and (pyrazol-3-yl)-1,3,4-thiazol-2-amine compounds” (Glaxo Group Limited, priority 2009, dated 2013)
In brackets after ≈: the same amount, converted by molar mass. Where two headings read alike, the source gives them in different places.

Legend:
[1] = system: Mycobacterium tuberculosis H37Rv; test: Mycobacterium tuberculosis H37Rv Inhibition Assay (Whole Cell Assay); assay type: cell-based; conditions: ATCC 25618 / H37Rv, H37Rv strain (ATCC25618), Middlebrook 7H9, six days at 37° C., resazurin fluorescence after 48 hours
[2] = target: T1, Mycobacterium tuberculosis InhA (Mycobacterium tuberculosis, UniProt P9WGR1); test: Mycobacterium tuberculosis InhA Inhibition Assay (Enzyme Assay); assay type: biochemical; conditions: 5 nM InhA, 50 μM DDCoA, 50 μM NADH, PIPES buffer pH 6.8, initial velocities of NADH consumption
T1 construct: made in house; host or cells: E. coli
T1 sequence (P9WGR1 whole entry, looked up): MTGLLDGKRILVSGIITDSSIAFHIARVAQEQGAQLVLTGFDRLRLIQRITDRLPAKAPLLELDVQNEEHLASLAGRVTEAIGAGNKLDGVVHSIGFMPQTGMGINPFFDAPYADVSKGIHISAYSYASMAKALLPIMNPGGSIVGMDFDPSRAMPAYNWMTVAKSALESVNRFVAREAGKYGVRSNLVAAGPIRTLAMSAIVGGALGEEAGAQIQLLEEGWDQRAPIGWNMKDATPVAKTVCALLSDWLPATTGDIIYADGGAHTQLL
How it was run: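 Recombinant Mtb InhA (E. coli-expressed), 5 nM, with 50 μM dodecenoyl-CoA and 50 μM NADH in 30 mM PIPES pH 6.8, 0.05% BSA; reaction started with enzyme. NADH fluorescence (ex 340/em 480 nm) followed 20 min at room temperature; IC50 from initial velocities of NADH consumption.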

Structure (SMILES) | MIC [1] [µM] | IC50 ([2]; read-out: IC50 value) [nM] | IC50 ([2]; IC50 value) [nM]
COC(C)(c1nc(C)cs1)c1nnc(Nc2ccn(Cc3c(F)cccc3Cl)n2)s1 (centres unmarked) [Example 72, N-{1-[(2-chloro-6-fluorophenyl)methyl]-1H-pyrazol-3-yl}-5-[1-(methyloxy)-1-(4-methyl-1,3-thiazol-2-yl)ethyl]-1,3,4-thiadiazol-2-amine] | 1 to 4 (≈ 0.465 to 1.86 µg/mL) | < 108 | 
Cc1cc(C(F)F)nn1Cc1nnc(Nc2ccn(Cc3c(F)cccc3Cl)n2)s1 [Example 55, N-{1-[(2-chloro-6-fluorophenyl)methyl]-1H-pyrazol-3-yl}-5-([3-(difluoromethyl)-5-methyl-I H-pyrazol-1-yl]methyl}-1,3,4-thiadiazol-2-amine] | > 10 | < 110 | 
Cc1ccn(C(C)c2nnc(Nc3ccn(Cc4ccccc4Cl)n3)s2)n1 (centres unmarked) [Example 42, N-{1-[(2-chlorophenyl)methyl]-1H-pyrazol-3-yl}-5-[1-(3-methyl-1H-pyrazol-1-yl)ethyl]-1,3,4-thiadiazol-2-amine] | 1 to 4 (≈ 0.4 to 1.6 µg/mL) | < 125 | 
O=[N+]([O-])c1ccn(Cc2nnc(Nc3ccn(Cc4c(F)cccc4Cl)n3)s2)n1 [Example 52, N-{1-[(2-chloro-6-fluorophenyl)methyl]-1H-pyrazol-3-yl}-5-[(3-nitro-1H-pyrazol-1-yl)methyl]-1,3,4-thiadiazol-2-amine] | > 10 |  | 115 to 230
Cc1cc(C)n(C(C)c2nnc(Nc3ccn(Cc4cc(Cl)ccc4Cl)n3)s2)n1 (centres unmarked) [Example 2, N-{1-[(2,5-dichlorophenyl)methyl]-1H-pyrazol-3-yl}-5-[1-(3,5-dimethyl-1H-pyrazol-1-yl)ethyl]-1,3,4-thiadiazol-2-amine] | > 10 | < 112 | 
Cc1cc(C)n(C(C)c2nnc(Nc3ccn(Cc4c(F)cccc4F)n3)s2)n1 (centres unmarked) [Example 12, N-{1-[(2,6-difluorophenyl)methyl]-1H-pyrazol-3-yl}-5-[1-(3,5-dimethyl-1H-pyrazol-1-yl)ethyl]-1,3,4-thiadiazol-2-amine] | ≤ 1 | < 120 | 
CCOC(=O)Nc1cccc(Cn2ccc(Nc3nnc(C(C)(O)c4nc(C)cs4)s3)n2)c1F (centres unmarked) [Intermediate 121, Ethyl (2-fluoro-3-{[3-({5-[1-hydroxy-1-(4-methyl-1,3-thiazol-2-yl)ethyl]-1,3,4-thiadiazol-2-yl}amino)-1H-pyrazol-1-yl]methyl}phenyl)carbamate] | 1 to 4 (≈ 0.504 to 2.01 µg/mL) |  | < 99.3
